Data as given in ChEMBL document CHEMBL1201862, “PubChem BioAssay data set” (2004).
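The compound was tested at five concentrations on cells cultured in 96-well plates, with a 48-hour exposure period. GI50 is the concentration that inhibits growth by half.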 The source made the active and inactive calls. Rule as the data show it: active = GI50 up to about 1.1 µM and inactive = higher.

What was measured:
Assay in all cases: NCI-60 cell line screen, 48 h
UO-31 = tested on: UO-31
786-0 = tested on: 786-0
OVCAR-8 = tested on: OVCAR-8
LOX IMVI = tested on: LOX IMVI
UACC-257 = tested on: UACC-257
HT-29 = tested on: HT-29
SK-MEL-28 = tested on: SK-MEL-28
SNB-75 = tested on: SNB-75
HOP-62 = tested on: HOP-62
MOLT-4 = tested on: MOLT-4
SK-MEL-2 = tested on: SK-MEL-2
EKVX = tested on: EKVX
CCRF-CEM = tested on: CCRF-CEM
CAKI-1 = tested on: CAKI-1
RXF 393 = tested on: RXF 393
RPMI-8226 = tested on: RPMI-8226

Measured: GI50

C#CC(C)(C)Oc1cc(O)c2c(=O)c3ccccc3n(C)c2c1
inactive: UO-31 > 100 µM | 786-0 53.3 µM | OVCAR-8 35.8 µM | LOX IMVI 19.3 µM | UACC-257 > 100 µM | HT-29 34 µM | SK-MEL-28 > 100 µM | SNB-75 40.4 µM | HOP-62 94 µM | MOLT-4 > 100 µM | SK-MEL-2 > 100 µM | EKVX > 100 µM | CCRF-CEM 45.2 µM | CAKI-1 > 100 µM | RXF 393 > 100 µM

COc1cc(Nc2cnc3cc(C(F)(F)F)ccc3n2)cc(OC)c1OC
inactive: UO-31 > 100 µM | 786-0 > 100 µM | RPMI-8226 > 100 µM | OVCAR-8 > 100 µM | LOX IMVI > 100 µM | UACC-257 > 100 µM | HT-29 > 100 µM | SK-MEL-28 > 100 µM | SNB-75 > 100 µM | HOP-62 > 100 µM | MOLT-4 > 100 µM | SK-MEL-2 > 100 µM | EKVX > 100 µM | CCRF-CEM > 100 µM | RXF 393 > 100 µM

Cc1cc(Cl)ccc1NC(=O)CCCC(=O)C1C/C(=N/O)CC/C1=N\O (centres undefined)
inactive: UO-31 > 100 µM | 786-0 > 100 µM | RPMI-8226 > 100 µM | OVCAR-8 > 100 µM | UACC-257 > 100 µM | HT-29 > 100 µM | SK-MEL-28 > 100 µM | SNB-75 > 100 µM | HOP-62 > 100 µM | MOLT-4 > 100 µM | SK-MEL-2 > 100 µM | EKVX > 100 µM | CCRF-CEM > 100 µM | CAKI-1 > 100 µM

CCCCOC(=O)NC(=O)c1cn(CCCOC(=O)CCCCCCCCC(=O)OCCCn2cc(C(=O)NC(=O)OCCCC)c(=O)[nH]c2=O)c(=O)[nH]c1=O
inactive: UO-31 > 100 µM | 786-0 > 100 µM | RPMI-8226 > 100 µM | OVCAR-8 > 100 µM | LOX IMVI > 100 µM | UACC-257 > 100 µM | HT-29 > 100 µM | SK-MEL-28 > 100 µM | HOP-62 > 100 µM | MOLT-4 > 100 µM | SK-MEL-2 > 100 µM | EKVX > 100 µM | CCRF-CEM > 100 µM | RXF 393 83 µM

COc1ccccc1NC(=O)NS(=O)(=O)c1ccccc1
inactive: UO-31 > 100 µM | 786-0 > 100 µM | OVCAR-8 > 100 µM | LOX IMVI > 100 µM | UACC-257 > 100 µM | HT-29 > 100 µM | SK-MEL-28 > 100 µM | SNB-75 > 100 µM | HOP-62 69.2 µM | SK-MEL-2 > 100 µM | EKVX 88.7 µM | CAKI-1 91.6 µM | RXF 393 28.9 µM

COc1ccc2c(c1)[n+]([O-])c(/C(C)=N/NC(=O)c1ccccc1O)c(C)[n+]2[O-]
inactive: UO-31 > 100 µM | 786-0 > 100 µM | RPMI-8226 > 100 µM | OVCAR-8 97.9 µM | LOX IMVI > 100 µM | UACC-257 > 100 µM | HT-29 > 100 µM | SK-MEL-28 > 100 µM | HOP-62 > 100 µM | MOLT-4 > 100 µM | SK-MEL-2 > 100 µM | EKVX > 100 µM | CCRF-CEM > 100 µM | CAKI-1 > 100 µM | RXF 393 > 100 µM

O=C1C2C3C=C4c5ccccc5N(c5ccccc5)C4([C@@H]2C(=O)N1c1ccc(F)cc1)[C@H]1C(=O)N(c2ccc(F)cc2)C(=O)[C@@H]31 (some centres undefined)
inactive: UO-31 20.9 µM | 786-0 > 100 µM | RPMI-8226 > 100 µM | OVCAR-8 > 100 µM | LOX IMVI > 100 µM | UACC-257 > 100 µM | SK-MEL-28 > 100 µM | SNB-75 > 100 µM | MOLT-4 > 100 µM | SK-MEL-2 > 100 µM | EKVX > 100 µM | CCRF-CEM > 100 µM | RXF 393 81.3 µM
